Data as given in patent US11730720B2, “ALK5 inhibitors” (THERAVANCE BIOPHARMA R&D IP, LLC, priority 2018, dated 2023).
pKi: −log10 of the molar value.

Experiments:
[1] = target: T1, recombinant human ALK5 (TGF-βR1) protein (Homo sapiens, UniProt P36897); test: Biochemical ALK5 (TGF-βR1) assay to measure pKi (LANCE Ultra ULight kinase assay); details: apparent pKi, converted from pIC50 using the Cheng-Prusoff equation
T1 construct: purchased Life Technologies PR9075A
T1 sequence (P36897 34-503): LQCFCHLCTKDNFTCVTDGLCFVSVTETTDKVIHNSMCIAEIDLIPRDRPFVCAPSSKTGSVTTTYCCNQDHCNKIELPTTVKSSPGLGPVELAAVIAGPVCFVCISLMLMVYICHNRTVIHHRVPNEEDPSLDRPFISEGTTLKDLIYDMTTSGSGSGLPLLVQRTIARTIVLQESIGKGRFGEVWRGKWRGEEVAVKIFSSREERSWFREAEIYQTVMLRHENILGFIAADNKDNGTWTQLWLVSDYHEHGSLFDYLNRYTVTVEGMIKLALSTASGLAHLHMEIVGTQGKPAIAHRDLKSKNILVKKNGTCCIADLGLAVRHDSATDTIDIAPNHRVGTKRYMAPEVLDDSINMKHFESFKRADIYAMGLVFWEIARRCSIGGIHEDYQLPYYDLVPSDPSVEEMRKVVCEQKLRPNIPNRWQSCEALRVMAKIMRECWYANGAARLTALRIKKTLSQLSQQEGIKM
Summary of the method: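 TR-FRET kinase format: compound dose range 10 μM–25 pM equilibrated 60 min with human ALK5 and ULight-labelled topoisomerase 2α peptide in HEPES/MgCl2 buffer pH 7.5 with DTT. Reaction started with ATP (125 μM stock, 5× final), 60 min at 37° C, stopped with EDTA/Eu-anti-phospho antibody; pKi derived from pIC50 via Cheng-Prusoff.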

[2] = system: TGF-β-stimulated SMAD3 phosphorylation in BEAS-2B cells; test: Cellular ALK5 potency assay, inhibition of TGF-β stimulated pSMAD3 formation in BEAS-2B cells; assay type: cell-based; details: Homo sapiens, inhibition of TGF-β (10 ng/mL) stimulated pSMAD3 formation, 1 hour compound incubation, read-out: BEAS2B pIC50 (converted)
Summary of the method: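 Phospho-SMAD3 was quantified by AlphaLISA in lysates of human lung epithelial BEAS-2B cells. Compound was added 1 h (37 °C, HEPES/BSA-supplemented HBSS) before a 30 min challenge with 10 ng/mL TGF-β. Values are pIC50 relative to stimulated cells without compound.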

SMILES	pKi [1]	IC50 [2]
CN(C)C(=O)[C@H]1CN(c2cnc3ccc(-c4c[nH]nc4-c4cc(Cl)ccc4F)nc3c2)CCN1 [Compound 1-61, (2R)-4-[6-[3-(5-chloro-2-fluoro-phenyl)-1H-pyrazol-4-yl]-1,5-naphthyridin-3-yl]-N,N-dimethyl-piperazine-2-carboxamide]	8.50 to 9.40	25.1 to 158 nM
COCc1cccc(-c2n[nH]cc2-c2ccc3ncc(C4=CCC(N)CC4)cc3n2)c1 (stereo not drawn) [Compound 14-12, 4-[6-[3-[3-(methoxymethyl)phenyl]-1H-pyrazol-4-yl]-1,5-naphthyridin-3-yl]cyclohex-3-en-1-amine]	8.50 to 9.40	25.1 to 158 nM
COC(=O)[C@@H]1CN(c2cnc3ccc(-c4c[nH]nc4-c4cc(Cl)c(F)cc4F)nc3c2)CCN1 [Compound 6-28, methyl (2S)-4-[6-[3-(5-chloro-2,4-difluoro-phenyl)-1H-pyrazol-4-yl]-1,5-naphthyridin-3-yl]piperazine-2-carboxylate]	8.50 to 9.40	25.1 to 158 nM
O=C(O)[C@@H]1CN(c2cnc3ccc(-c4nc[nH]c4-c4cc(Cl)ccc4F)nc3c2)CCN1 [Compound 2-13, (S)-4-(6-(5-(5-chloro-2-fluorophenyl)-1H-imidazol-4-yl)-1,5-naphthyridin-3-yl)piperazine-2-carboxylic acid]	8.50 to 9.40	200 to 1260 nM
Clc1cccc(-c2[nH]cnc2-c2ccc3ncc(NCCN4CCNCC4)cc3c2)c1 [Compound 24-4, 6-[5-(3-chlorophenyl)-1H-imidazol-4-yl]-N-(2-piperazin-1-ylethyl)quinolin-3-amine]	8.50 to 9.40	25.1 to 158 nM
O=C(O)[C@H]1CN(c2cnc3ccc(-c4nc[nH]c4-c4cc(Cl)ccc4F)nc3c2)CCN1 [Compound 2-28, (2R)-4-[6-[5-(5-chloro-2-fluoro-phenyl)-1H-imidazol-4-yl]-1,5-naphthyridin-3-yl]piperazine-2-carboxylic acid]	8.50 to 9.40	200 to 1260 nM
Fc1cc(F)c(-c2n[nH]cc2-c2ccc3ncc(N4CC(N5CCCCC5)C4)cc3n2)cc1Cl [Compound 6-14, 2-(3-(5-chloro-2,4-difluorophenyl)-1H-pyrazol-4-yl)-7-(3-(piperidin-1-yl)azetidin-1-yl)-1,5-naphthyridine]	9.50 to 10.40	25.1 to 158 nM
Fc1ccc(Cl)cc1-c1n[nH]cc1-c1ccc2ncc(N3CCn4nc(N5CCN(Cc6ccccc6)CC5)cc4C3)cc2n1 [Compound 1-47, 7-[2-(4-benzylpiperazin-1-yl)-6,7-dihydro-4H-pyrazolo[1,5-a]pyrazin-5-yl]-2-[3-(5-chloro-2-fluoro-phenyl)-1H-pyrazol-4-yl]-1,5-naphthyridine]	9.50 to 10.40	25.1 to 158 nM
NC1CC=C(c2cnc3ccc(-c4c[nH]nc4-c4ccc(F)c(F)c4)nc3c2)CC1 (stereo not drawn) [Compound 8-19, 4-[6-[3-(3,4-difluorophenyl)-1H-pyrazol-4-yl]-1,5-naphthyridin-3-yl]cyclohex-3-en-1-amine]	9.50 to 10.40	≤ 20 nM
CC(C)N1CCCN(c2cnc3ccc(-c4c[nH]nc4-c4cc(Cl)ccc4F)nc3c2)CC1C (racemic) [Compound 1-82, 2-[3-(5-chloro-2-fluoro-phenyl)-1H-pyrazol-4-yl]-7-[rac-(3S)-4-isopropyl-3-methyl-1,4-diazepan-1-yl]-1,5-naphthyridine]	8.50 to 9.40	25.1 to 158 nM
COCc1cccc(-c2n[nH]cc2-c2ccc3ncc(C4=CCC(N(C)C)CC4)cc3n2)c1 (stereo not drawn) [Compound 14-14, 4-(6-(3-(3-(methoxymethyl)phenyl)-1H-pyrazol-4-yl)-1,5-naphthyridin-3-yl)-N,N-dimethylcyclohex-3-en-1-amine]	9.50 to 10.40	25.1 to 158 nM
NC1CCN(c2cnc3ccc(-c4c[nH]nc4-c4cc(Cl)ccc4F)nc3c2)CC1 [Compound 1-135, 1-[6-[3-(5-chloro-2-fluoro-phenyl)-1H-pyrazol-4-yl]-1,5-naphthyridin-3-yl]piperidin-4-amine]	9.50 to 10.40	25.1 to 158 nM
Fc1cc(F)c(-c2n[nH]cc2-c2ccc3ncc(N4CCC(N5CCCCC5)C4)cc3n2)cc1Cl (racemic) [Compound 6-21, 2-[3-(5-chloro-2,4-difluoro-phenyl)-1H-pyrazol-4-yl]-7-[rac-(3R)-3-(1-piperidyl)pyrrolidin-1-yl]-1,5-naphthyridine]	9.50 to 10.40	25.1 to 158 nM
Fc1ccc(Cl)cc1-c1nc2ccccn2c1-c1ccc2ncc(-c3nc4n(n3)CCNC4)cc2n1 [Compound 3-9, 2-[2-(5-chloro-2-fluoro-phenyl)imidazo[1,2-a]pyridin-3-yl]-7-(5,6,7,8-tetrahydro-[1,2,4]triazolo[1,5-a]pyrazin-2-yl)-1,5-naphthyridine]	9.50 to 10.40	25.1 to 158 nM
Fc1ccc(-c2n[nH]cc2-c2ccc3ncc(-c4cnn(CC5CNC5)c4)cc3n2)cc1F [Compound 8-15, 7-[1-(azetidin-3-ylmethyl)pyrazol-4-yl]-2-[3-(3,4-difluorophenyl)-1H-pyrazol-4-yl]-1,5-naphthyridine]	≥ 10.50	25.1 to 158 nM
CC1(C)CCCN1CCNc1cnc2ccc(-c3c[nH]nc3-c3cc(Cl)c(F)cc3F)nc2c1 [Compound 6-5, 6-[3-(5-chloro-2,4-difluoro-phenyl)-1H-pyrazol-4-yl]-N-[2-(2,2-dimethylpyrrolidin-1-yl)ethyl]-1,5-naphthyridin-3-amine]	9.50 to 10.40	25.1 to 158 nM
COC(=O)c1cnc2ccc(-c3[nH]nnc3-c3cc(Cl)ccc3F)nc2c1 [Compound 5-1, methyl 6-(4-(5-chloro-2-fluorophenyl)-1H-1,2,3-triazol-5-yl)-1,5-naphthyridine-3-carboxylate]	8.50 to 9.40	25.1 to 158 nM
Fc1cc(F)c(-c2n[nH]cc2-c2ccc3ncc(-c4cn[nH]c4)cc3n2)cc1Cl [Compound 6-6, 2-[3-(5-chloro-2,4-difluoro-phenyl)-1H-pyrazol-4-yl]-7-(1H-pyrazol-4-yl)-1,5-naphthyridine]	9.50 to 10.40	≤ 20 nM
Fc1cc(F)c(-c2n[nH]cc2-c2ccc3ncccc3n2)cc1Cl [Compound 6-71, 2-[3-(5-chloro-2,4-difluoro-phenyl)-1H-pyrazol-4-yl]-1,5-naphthyridine]	8.50 to 9.40	25.1 to 158 nM
Fc1ccc(Cl)cc1-c1n[nH]cc1-c1ccc2ncc(NC3CCNCC3)cc2n1 [Compound 1-24, 6-[3-(5-chloro-2-fluoro-phenyl)-1H-pyrazol-4-yl]-N-(4-piperidyl)-1,5-naphthyridin-3-amine]	9.50 to 10.40	25.1 to 158 nM
Fc1ccc(Cl)cc1-c1n[nH]cc1-c1ccc2ncc(-c3cn[nH]c3)cc2c1 [Compound 16-2, 6-[3-(5-chloro-2-fluoro-phenyl)-1H-pyrazol-4-yl]-3-(1H-pyrazol-4-yl)quinoline]	9.50 to 10.40	≤ 20 nM
Fc1ccc(-c2n[nH]cc2-c2ccc3ncc(C4=CCNC4)cc3n2)cc1F [Compound 8-20, 2-[3-(3,4-difluorophenyl)-1H-pyrazol-4-yl]-7-(2,5-dihydro-1H-pyrrol-3-yl)-1,5-naphthyridine]	8.50 to 9.40	25.1 to 158 nM
COCc1cccc(-c2n[nH]cc2-c2ccc3ncc(-c4cnn([C@H]5CCCC[C@H]5N)c4)cc3n2)c1 [Compound 14-18, (1R,2S)-2-[4-[6-[3-[3-(methoxymethyl)phenyl]-1H-pyrazol-4-yl]-1,5-naphthyridin-3-yl]pyrazol-1-yl]cyclohexanamine]	9.50 to 10.40	25.1 to 158 nM
Fc1ccc(Cl)cc1-c1[nH]cnc1-c1ccc2ncc(-c3cnn4c3CNCC4)cc2n1 [Compound 2-22, 2-[5-(5-chloro-2-fluoro-phenyl)-1H-imidazol-4-yl]-7-(4,5,6,7-tetrahydropyrazolo[1,5-a]pyrazin-3-yl)-1,5-naphthyridine]	9.50 to 10.40	25.1 to 158 nM
Fc1ccc(Cl)cc1-c1n[nH]cc1-c1ccc2ncc(N3CC4CNCC43)cc2n1 (stereo not drawn) [Compound 1-54, 2-[3-(5-chloro-2-fluoro-phenyl)-1H-pyrazol-4-yl]-7-(3,6-diazabicyclo[3.2.0]heptan-6-yl)-1,5-naphthyridine]	8.50 to 9.40	25.1 to 158 nM
CCN1CCC(N(C)c2cnc3ccc(-c4c[nH]nc4-c4cc(Cl)c(F)cc4F)nc3c2)CC1 [Compound 6-15, 6-[3-(5-chloro-2,4-difluoro-phenyl)-1H-pyrazol-4-yl]-N-(1-ethyl-4-piperidyl)-N-methyl-1,5-naphthyridin-3-amine]	8.50 to 9.40	25.1 to 158 nM
Fc1ccc(Cl)cc1-c1n[nH]cc1-c1ccc2ncc(N3CCn4nc(N5CCNCC5)cc4C3)cc2n1 [Compound 1-128, 2-[3-(5-chloro-2-fluoro-phenyl)-1H-pyrazol-4-yl]-7-(2-piperazin-1-yl-6,7-dihydro-4H-pyrazolo[1,5-a]pyrazin-5-yl)-1,5-naphthyridine]	9.50 to 10.40	200 to 1260 nM
